One series relates to cells. The following applies: exposure longer than 24 hrs in culture medium; cited from earlier work.
Series [1] relates to transcripts containing miR-7- or miR-124-specific CCRs. The experiment in a line: miR-7 and miR-124 duplex transfection into HEK293 cells, mRNA stability by Affymetrix microarrays. The format is cell-based, human. The following applies: HEK293 cells stably expressing FLAG/HA-AGO2. From the text:
To allow for a comparison to such studies, we transfected miRNA duplexes corresponding to the deeply conserved miR-7 and miR-124 into HEK293 cells stably expressing FLAG/HA-AGO2 and performed PURE-CLIP. Before transfection, these miRNAs were only present in trace amounts in HEK293 cells, less than 0.2% of total miRNA abundance. We found 1,866 unique sequence read clusters in the miR-7 and 10,929 in the miR-124 transfection experiments. The CCRs isolated from miR-7 and miR-124 transfection experiments were enriched for the seed sequences of the transfected miRNA duplexes. These CCRs were predominantly exonic (87 and 88%, respectively), 28% mapped to the CDS, 57 and 59%, respectively, to the 3′UTR of mRNAs and only 3 and 2%, respectively, to the 5′UTR. miR-7 and miR-124 binding sites that were located in the CDS for miR-7 and -124 were also embedded in regions with unusual codon bias, similar to the binding sites of endogenous miRNA target sites (FIG. 31).
The change in mRNA stability was analyzed after miRNA duplex transfection by Affymetrix whole genome microarrays (Hausser et al., submitted). We observed that transcripts containing miR-7- or miR-124-specific CCRs were destabilized upon miRNA delivery, especially for transcripts with CCRs located in the 3′UTR (FIG. 32-33). […]

We go through two compounds from patent US8841073B2, “Methods for identifying RNA segments bound by RNA-binding proteins or ribonucleoprotein complexes” (The Rockefeller University, priority 2008, dated 2014).

With `Nc1nc2c(ncn2[C@@H]2O[C@H](CO)[C@@H](O)[C@H]2O)c(=S)[nH]1` [6SG, 6-thioguanosine], the “concentration above which cytotoxicity is noticeable” value in the series on cells is recorded as “above 100 μM”.

Take “miR-7: transfected miRNA duplex, 5'-UGGAAGACUAGUGAUUUUGUUGU / 5'-CAACAAAUCACAGUCUGCCAUA (SEQ ID NO: 66, 67) (listed as RNA, chemistry not given here)”: the “change in mRNA stability of CCR-containing transcripts after miRNA duplex transfection” value in series [1] was “destabilized”.
